Literature values, collected in patent publication US11618772B2 (Kineta Chronic Pain, LLC, priority 2014, dated 2023).

Target: T1, α9α10 nAChR (Rattus norvegicus, UniProt P43144+Q9JLB5)
T1 construct: host or cells: oocytes
Details: cited from earlier work

T1 sequence (P43144 26-479 limits assumed): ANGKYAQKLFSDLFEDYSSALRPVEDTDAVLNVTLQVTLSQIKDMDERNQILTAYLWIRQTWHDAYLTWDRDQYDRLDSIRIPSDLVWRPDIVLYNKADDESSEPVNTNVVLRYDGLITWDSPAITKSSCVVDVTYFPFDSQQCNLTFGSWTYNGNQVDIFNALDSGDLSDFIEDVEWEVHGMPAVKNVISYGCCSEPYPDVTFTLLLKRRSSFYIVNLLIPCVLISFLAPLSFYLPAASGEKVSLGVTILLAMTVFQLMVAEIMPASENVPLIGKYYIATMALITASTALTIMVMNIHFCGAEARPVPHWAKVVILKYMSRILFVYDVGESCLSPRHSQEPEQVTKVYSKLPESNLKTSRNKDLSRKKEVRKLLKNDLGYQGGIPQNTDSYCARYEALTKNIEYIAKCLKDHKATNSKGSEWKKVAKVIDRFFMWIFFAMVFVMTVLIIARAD
T1 sequence (Q9JLB5 25-447 limits assumed): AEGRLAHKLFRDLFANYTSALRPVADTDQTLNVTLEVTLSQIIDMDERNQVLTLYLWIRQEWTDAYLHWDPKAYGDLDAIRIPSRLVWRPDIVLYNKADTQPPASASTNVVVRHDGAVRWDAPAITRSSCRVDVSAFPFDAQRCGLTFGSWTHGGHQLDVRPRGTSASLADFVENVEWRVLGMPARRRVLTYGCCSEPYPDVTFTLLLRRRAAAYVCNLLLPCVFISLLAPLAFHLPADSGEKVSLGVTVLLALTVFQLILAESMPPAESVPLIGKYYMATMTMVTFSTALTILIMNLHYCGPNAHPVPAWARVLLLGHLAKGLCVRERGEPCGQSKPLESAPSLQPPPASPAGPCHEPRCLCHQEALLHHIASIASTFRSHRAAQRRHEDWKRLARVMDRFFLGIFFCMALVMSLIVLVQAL

GCCSDPRCRYRCR [RgIA]
block of α9α10 nAChR: block α9α10 nAChR
